Laboratory results reported in patent publication US9388141B2, “Acylaminocycloalkyl compounds suitable for treating disorders that respond to modulation of dopamine D3 receptor” (AbbVie Deutschland GmbH & Co. KG, priority 2013, dated 2016).

Experiments:
[1] = target: T1, human dopamine D3 receptors (Homo sapiens, UniProt P35462); test: Dopamine D3 receptor binding, [125I]-iodosulpride displacement; details: membranes of HEK-293 cells with human D3 receptors, 0.1 nM [125I]-iodosulpride
T1 construct: expressed in transfected cells; host or cells: HEK-293
T1 sequence (P35462 whole entry): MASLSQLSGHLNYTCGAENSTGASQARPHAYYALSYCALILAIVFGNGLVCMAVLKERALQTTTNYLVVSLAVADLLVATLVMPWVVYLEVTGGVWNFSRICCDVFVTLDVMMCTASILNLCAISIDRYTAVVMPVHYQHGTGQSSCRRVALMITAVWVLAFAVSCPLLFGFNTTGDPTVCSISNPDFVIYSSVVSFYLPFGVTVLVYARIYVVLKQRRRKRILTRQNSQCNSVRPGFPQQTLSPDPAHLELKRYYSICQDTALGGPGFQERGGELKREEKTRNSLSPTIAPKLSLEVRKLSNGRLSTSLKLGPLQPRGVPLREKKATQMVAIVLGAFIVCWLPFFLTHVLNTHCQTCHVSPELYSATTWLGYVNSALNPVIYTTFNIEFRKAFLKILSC
Description: (§1) The substance to be tested was either dissolved in methanol/Chremophor® (BASF SE) or in dimethyl sulfoxide and then diluted with water to the desired concentration.
(§2) Each assay mixture was run in triplicate. • The incubation buffer contained 50 mM tris, 120 mM NaCl, 5 mM KCl, 2 mM CaCl2, 2 mM MgCl2 and 0.1% bovine serum albumin, 10 μM quinolone and 0.1% ascorbic acid (prepared fresh daily). […] Each assay mixture was run in triplicate. • The incubation buffer contained 50 mM tris, 120 mM NaCl, 5 mM KCl, 2 mM CaCl2, 2 mM MgCl2 and 0.1% bovine serum albumin. The buffer was adjusted to pH 7.4 with HCl. c) Measurement and Analysis: • After having been incubated at 25° C. for 60 minutes, the assay mixtures were filtered through a Whatman GF/B glass fiber filter under vacuum using a cell collecting device. The filters were transferred to scintillation viols using a filter transfer system. After 4 ml of Ultima Gold® (Packard) have been added, the samples were shaken for one hour and the radioactivity was then counted in a Beta-Counter (Packard, Tricarb 2000 or 2200CA).

[2] = target: T2, human dopamine D2L receptors (long isoform) (Homo sapiens, UniProt P14416); test: Dopamine D2L receptor binding, [125I]-iodospiperone displacement; details: selectivity ratio Ki (D2L)/Ki (D3)
T2 construct: expressed in transfected cells; host or cells: HEK-293
T2 sequence (P14416 whole entry, canonical isoform): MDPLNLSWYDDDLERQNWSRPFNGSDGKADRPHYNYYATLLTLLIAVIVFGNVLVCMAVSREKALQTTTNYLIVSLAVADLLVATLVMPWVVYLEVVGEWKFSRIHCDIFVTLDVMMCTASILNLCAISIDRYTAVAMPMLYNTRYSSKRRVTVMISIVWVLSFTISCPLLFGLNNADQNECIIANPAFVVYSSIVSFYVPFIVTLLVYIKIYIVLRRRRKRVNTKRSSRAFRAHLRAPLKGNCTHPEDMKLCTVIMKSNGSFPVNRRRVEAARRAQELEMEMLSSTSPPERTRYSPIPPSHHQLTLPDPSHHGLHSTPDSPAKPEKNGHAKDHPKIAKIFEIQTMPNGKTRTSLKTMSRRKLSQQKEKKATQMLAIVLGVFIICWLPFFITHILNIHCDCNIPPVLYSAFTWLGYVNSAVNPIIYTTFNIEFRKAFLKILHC
Description: as §1, §2

[3] = Determination of the microsomal half-life / microsomal clearance; assay type: in vitro ADME; details: human liver microsomes, 0.5 μM test substance, 0.25 mg microsomal protein/ml, pH 7.4, 37° C.
Description: The metabolic stability of the compounds of the invention was determined in the following assay.
The test substances were incubated in a concentration of 0.5 μM as follows:
0.5 μM test substance are preincubated together with liver microsomes from different species (from rat, human or other species) (0.25 mg of microsomal protein/ml) in 0.05 M potassium phosphate buffer of pH 7.4 in microtiter plates at 37° C. for 5 min. The reaction is started by adding NADPH (1 mg/mL). After 0, 5, 10, 15, 20 and 30 min, 50 μl aliquots are removed, and the reaction is immediately stopped and cooled with the same volume of acetonitrile. The samples are frozen until analyzed. The remaining concentration of undegraded test substance is determined by MSMS. The half-life (T1/2) is determined from the gradient of the signal of test substance/unit time plot, it being possible to calculate the half-life of the test substance, assuming first order kinetics, from the decrease in the concentration of the compound with time. The microsomal clearance (mCl) is calculated from mCl=1n2/T1/2/(content of microsomal protein in mg/ml)×1000 [[…]] (modified from references: Di, The Society for Biomoleculur Screening, 2003, 453-462; Obach, DMD, 1999 vol 27. N 11, 1350-1359).

| Structure (SMILES) | Ki [1] [nM] | D2/D3, Ki (D2L)/Ki (D3) [2] | Human mCl [3] |
| --- | --- | --- | --- |
| CC(C)(C)c1nc(C2CCC2)cc(N2CCN(CC[C@H]3CC[C@@H](NC(=O)[C@H]4CC[C@@H](O)CC4)CC3)CC2)n1.O=C(O)C(F)(F)F [Compound 15, Cis-N-[cis-4-[2-[4-(2-tert-butyl-6-cyclobutyl-pyrimidin-4-yl)piperazin-1-yl]ethyl]cyclohexyl]-4-hydroxy-cyclohexanecarboxamide; 2,2,2-trifluoroacetic acid] | < 10 | +++ (+++>50) | ∘ (∘: >120 μl min^−1 mg^−1) |
| CC(C)(C)c1nc(C(F)F)cc(N2CCN(CCC3CCC(NC(=O)C4CCC(O)CC4)CC3)CC2)n1 (stereo not drawn) [Compound 29, N-[4-[2-[4-[2-tert-butyl-6-(difluoromethyl)pyrimidin-4-yl]piperazin-1-yl]ethyl]cyclohexyl]-4-hydroxy-cyclohexanecarboxamide] | < 10 | + (+>10) | + (+: 20-120 μl min^−1 mg^−1) |
| CC(C)(C)c1nc(C2CCCC2)cc(N2CCN(CC[C@H]3CC[C@@H](NC(=O)[C@H]4CC[C@H](O)CC4)CC3)CC2)n1 [Compound 36, trans-N-[cis-4-[2-[4-(2-tert-butyl-6-cyclopentyl-pyrimidin-4-yl)piperazin-1-yl]ethyl]cyclohexyl]-4-hydroxy-cyclohexanecarboxamide] | < 10 | +++ (+++>50) | + (+: 20-120 μl min^−1 mg^−1) |
| CC(C)(C)c1nc(C2CCC2)cc(N2CCN(CC[C@H]3C[C@H](NC(=O)[C@H]4C[C@H](O)C4)C3)CC2)n1.O=C(O)C(F)(F)F [Compound 39, trans-N-[trans-3-[2-[4-(2-tert-butyl-6-cyclobutyl-pyrimidin-4-yl)piperazin-1-yl]ethyl]cyclobutyl]-3-hydroxy-cyclobutanecarboxamide; 2,2,2-trifluoroacetic acid] | < 10 | +++ (+++>50) | ++ (++: <20 μl min^−1 mg^−1) |
| CC(C)c1cc(N2CCN(CCC3CCC(NC(=O)C4CCC(O)CC4)CC3)CC2)nc(C(C)(C)C)n1 (stereo not drawn) [Compound 31, N-[4-[2-[4-(2-tert-butyl-6-isopropyl-pyrimidin-4-yl)piperazin-1-yl]ethyl]cyclohexyl]-4-hydroxy-cyclohexanecarboxamide] | < 10 | ++ (++>20) | + (+: 20-120 μl min^−1 mg^−1) |
| CC(C)(C)c1nc(N2CCN(CC[C@H]3CC[C@@H](NC(=O)[C@H]4CC[C@H](O)CC4)CC3)CC2)cc(C(F)(F)F)n1 [Compound 23, Trans-N-[cis-4-[2-[4-[2-tert-butyl-6-(trifluoromethyl)pyrimidin-4-yl]piperazin-1-yl]ethyl]cyclohexyl]-4-hydroxy-cyclohexanecarboxamide] | < 50 | +++ (+++>50) | + (+: 20-120 μl min^−1 mg^−1) |
| CC(C)(C)c1nc(C2CCC2)cc(N2CCN(CC[C@H]3C[C@@H](NC(=O)[C@H]4CC[C@H](O)CC4)C3)CC2)n1 [Compound 10, Trans-N-[cis-3-[2-[4-(2-tert-butyl-6-cyclobutyl-pyrimidin-4-yl)piperazin-1-yl]ethyl]cyclobutyl]-4-hydroxy-cyclohexanecarboxamide] | < 10 | +++ (+++>50) | + (+: 20-120 μl min^−1 mg^−1) |
| CC(C)(C)c1nc(N2CCN(CC[C@H]3CC[C@H](NC(=O)[C@H]4CC[C@H](O)CC4)CC3)CC2)cc(C(F)(F)F)n1 [Compound 21, trans-N-[trans-4-[2-[4-[2-tert-butyl-6-(trifluoromethyl)pyrimidin-4-yl]piperazin-1-yl]ethyl]cyclohexyl]-4-hydroxy-cyclohexanecarboxamide] | < 10 | ++ (++>20) | + (+: 20-120 μl min^−1 mg^−1) |
| CC(C)(C)c1nc(N2CCN(CC[C@H]3CC[C@@H](NC(=O)[C@H]4CC[C@H](O)CC4)CC3)CC2)cc(C2(C)CC2)n1 [Compound 28, Trans-N-[cis-4-[2-[4-[2-tert-butyl-6-(1-methylcyclopropyl)pyrimidin-4-yl]piperazin-1-yl]ethyl]cyclohexyl]-4-hydroxy-cyclohexanecarboxamide] | < 10 | ++ (++>20) | + (+: 20-120 μl min^−1 mg^−1) |
| CC(C)(C)c1nc(C2CCC2)cc(N2CCN(CC[C@H]3CC[C@@H](NC(=O)[C@H]4CC[C@H](O)CC4)CC3)CC2)n1 [Compound 6, trans-N-[cis-4-[2-[4-(2-tert-butyl-6-cyclobutyl-pyrimidin-4-yl)piperazin-1-yl]ethyl]cyclohexyl]-4-hydroxy-cyclohexanecarboxamide] | < 10 | +++ (+++>50) | + (+: 20-120 μl min^−1 mg^−1) |
| COCCc1cc(N2CCN(CC[C@H]3C[C@@H](NC(=O)[C@H]4CC[C@@H](O)CC4)C3)CC2)nc(C(C)(C)C)n1 [Compound 12, Cis-N-[cis-3-[2-[4-[2-tert-butyl-6-(2-methoxyethyl)pyrimidin-4-yl]piperazin-1-yl]ethyl]cyclobutyl]-4-hydroxy-cyclohexanecarboxamide] | < 50 | +++ (+++>50) | + (+: 20-120 μl min^−1 mg^−1) |
| COCCc1cc(N2CCN(CC[C@H]3CC[C@@H](NC(=O)[C@H]4CC[C@H](O)CC4)CC3)CC2)nc(C(C)(C)C)n1 [Compound 3, trans-N-[cis-4-[2-[4-[2-tert-butyl-6-(2-methoxyethyl)pyrimidin-4-yl]piperazin-1-yl]ethyl]cyclohexyl]-4-hydroxy-cyclohexanecarboxamide] | < 10 | ++ (++>20) | + (+: 20-120 μl min^−1 mg^−1) |
| CC(C)(C)c1cc(N2CCN(CC[C@H]3CC[C@@H](NC(=O)[C@H]4CC[C@H](O)CC4)CC3)CC2)nc(C(C)(C)C)n1 [Compound 22, trans-N-[cis-4-[2-[4-(2,6-ditert-butylpyrimidin-4-yl)piperazin-1-yl]ethyl]cyclohexyl]-4-hydroxy-cyclohexanecarboxamide] | < 50 | +++ (+++>50) | + (+: 20-120 μl min^−1 mg^−1) |
| CC(C)(C)c1nc(C(F)F)cc(N2CCN(CC[C@H]3CC[C@@H](NC(=O)[C@H]4CC[C@H](O)CC4)CC3)CC2)n1 [Compound 30, Trans-N-[cis-4-[2-[4-[2-tert-butyl-6-(difluoromethyl)pyrimidin-4-yl]piperazin-1-yl]ethyl]cyclohexyl]-4-hydroxy-cyclohexanecarboxamide] | < 10 | ++ (++>20) | + (+: 20-120 μl min^−1 mg^−1) |
| COCCc1cc(N2CCN(CC[C@H]3CC[C@H](NC(=O)[C@H]4C[C@@H](O)C4)CC3)CC2)nc(C(C)(C)C)n1 [Compound 18, cis-N-[trans-4-[2-[4-[2-tert-butyl-6-(2-methoxyethyl)pyrimidin-4-yl]piperazin-1-yl]ethyl]cyclohexyl]-3-hydroxy-cyclobutanecarboxamide] | < 10 | +++ (+++>50) | + (+: 20-120 μl min^−1 mg^−1) |
| CC(C)(C)c1nc(C2CCCC2)cc(N2CCN(CC[C@H]3CC[C@H](NC(=O)[C@H]4CC[C@H](O)CC4)CC3)CC2)n1 [Compound 35, trans-N-[trans-4-[2-[4-(2-tert-butyl-6-cyclopentyl-pyrimidin-4-yl)piperazin-1-yl]ethyl]cyclohexyl]-4-hydroxy-cyclohexanecarboxamide] | < 10 | + (+>10) | + (+: 20-120 μl min^−1 mg^−1) |
